Data taken from US11440939B2, “Anticancer peptides” (IDP DISCOVERY PHARMA, S.L., priority 2017, dated 2022).
Numbered stars: 1 amine (or outer) side, 2 acyl side, 3 side chain; on linkers, the order of the positions; unused ones are H or OH. Bridge positions count the residues as written; N and C are the ends. Square brackets hold non-standard residues; d marks the D form. Peptide text beside a SMILES is read from it. ξ: configuration not given here. ξαMeNle(6-ylidene) = CC(CCCC=[*:3])(N[*:1])C(=O)[*:2]; X1 = CC(CCCCCCC=[*:3])(N[*:1])C(=O)[*:2]

How the values were obtained:
Type in all cases: cell-based
MCF-7 = test system: MCF-7
Method: MCF-7, epithelial (breast cancer), ECACC: 86012803;
(§1) Cell line MCF-7 was cultured in incubator under CO2 (6%) at 37° C. in DMEM high glucose (Dulbecco's Modified Eagle Solution, Gibco-BRL 31966-21) medium with 10% fetal bovine serum inactivated (FBS) (Gibco-BRL 10106-169). Cell lines HL-60, NCI-H524, NCI-H526, NCI-H69, NCI-H82, NCI-H187 and H5B were cultured in an incubator at 37° C. in RPMI-1640 (Sigma R8758) medium with 10% of fetal bovine serum inactivated (FBS) and 2 mM glutamine (Sigma G7513). Cell line NCI-H510A was cultured in incubator in F12K medium with 10% of fetal bovine serum inactivated (FBS). […]
(§2) During the amplification step and the assays, adherent cells were rinsed with DPBS (Dulbecco's Phosphate Buffered Saline, Sigma D1283) three times and afterward treated for 5 minutes with trypsin ([…]) (Gibco-BRL, 15400054) in solution of DPBS at 37° C., and, once detached, transferred in the culturing medium. […] Cells were counted in a Neubauer chamber after labelling with Tripan-Blue. […]
(§3) Cells were incubated during 72 h in incubator under CO2 atmosphere at 37° C. Cell viability was measured by means of MTT (3-(4,5-dimethylthiazol-2-yl)-2,5-diphenyltetrazolium bromide) assay, Alamar Blue® (Biosource DAL1100) and Hexosaminidase activity test, consecutively, following manufacturer instructions.
(§4) MTT: 1. […] Absorbance at 570 nm was finally measured. […]

HL-60 = test system: HL-60
Method: HL-60, promyeloblast (acute myelocytic leukemia, AML), ECACC: 98070106;
as §1, §2, §3, §4

NCI-H69 = settings: 72 h
Method: NCI-69, (small cell lung cancer, SCLC), ATCC-HTB-119;
as §1, §2, §3, §4

## CC(C)C[C@H](NC(=O)[C@H](CCCCN)NC(=O)[C@@H](NC(=O)[C@@H](N)CCCNC(=N)N)C(C)C)C(=O)N[C@H](C(=O)N[C@@H](CC(N)=O)C(=O)N[C@@H](CC(C)C)C(=O)NC1(C)CCCCCCC=CCCCC(C)(C(=O)N[C@H](C(=O)N2CCC[C@H]2C(N)=O)C(C)C)NC(=O)[C@H](CCC(=O)O)NC(=O)[C@H](CCCNC(=N)N)NC(=O)[C@H](CC(C)C)NC(=O)[C@H]([C@@H](C)O)NC(=O)[C@H](C)NC(=O)[C@H](Cc2ccccc2)NC1=O)C(C)C (stereo partly drawn) [H14] (H-RVKLVNL[X1]FATLRE[ξαMeNle(6-ylidene)]VP-NH2; staple 8-15; N-terminus and C-terminus assumed)
MCF-7
  EC50: ~9 µM
HL-60
  EC50: ~14 µM
NCI-H69
  EC50: ~7 µM
